Blank lines part the entries; values can stand above or below the compound they belong to.
Legend:
[1] = biological target: T1, Horseradish peroxidase (HRP) (Armoracia rusticana, UniProt P00433); experiment: Mediation to horseradish peroxidase, rotating ring-disk voltammetry; assay type: biochemical; details: mediator 0.5 mM, HRP 280 U, ring poised at -100 mV, disk scanned -100 to -600 mV
T1 sequence (P00433 31-338): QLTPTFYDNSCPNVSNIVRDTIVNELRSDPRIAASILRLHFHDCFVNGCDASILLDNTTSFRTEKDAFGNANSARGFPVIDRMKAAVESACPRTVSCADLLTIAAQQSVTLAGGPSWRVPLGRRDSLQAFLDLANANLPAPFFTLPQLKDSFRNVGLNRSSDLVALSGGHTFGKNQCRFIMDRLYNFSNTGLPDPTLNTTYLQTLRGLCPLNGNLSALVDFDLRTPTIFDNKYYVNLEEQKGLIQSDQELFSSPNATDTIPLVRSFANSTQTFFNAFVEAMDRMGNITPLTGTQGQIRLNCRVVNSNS
Experimental: (§1) The phosphate buffer solution (PBS) of 0.15 M phosphate (with 0.2 M sodium chloride as supporting electrolyte), pH 7.0, containing 0.1 M glucose was prepared using Analar reagents from Merck BDH. The solution was stored overnight at 4° C. prior to use to allow equilibration of the α- and β-anomers. Glucose oxidase (EC 1.1.3.4 from Aspergillus niger) was supplied by Sturge Enzymes. Horseradish peroxidase was obtained from Biozyme.
The ability of the β-cyclodextrin adduct of the manganese complex Compound 10 to mediate with […] (HRP) was assessed by comparing it with 1,1'-dimethylferrocene ethanolamine using rotating ring-disk voltammetry according to a literature method (Anal. Chem., 62 (1990) 2429). Experiments were carded out using a glass cell (14 ml capacity) containing a platinum counter electrode with a calomel reference electrode. A gold-gold ring-disk electrode, rotated at 4 Hz, was immersed in a phosphate-buffered saline solution of the mediator (0.5 mM) containing HRP (280 U). The catalytic ring current was then measured while poising the ring electrode at -100 mV and scanning the disk electrode from -100 to -600mV to generate hydrogen peroxide.

[2] = Cyclic voltammetry of the complexes in aqueous buffer (PBS); assay type: physicochemical; details: for EOX: arene chromium tricarbonyl complexes, aqueous electrochemistry; for potential of the voltammetric wave: manganese complexes in aqueous buffer (PBS)
[3] = Cyclic voltammetry of screen-printed carbon electrodes containing the complex; assay type: physicochemical; details: for oxidation wave potential: screen-printed carbon electrodes, scan rates 50 and 100 mV/s
Experimental: (§2) Screen-printed electrodes incorporating Compound 6 were produced from an organic carbon ink containing the chromium complex at a level of 3.5 mg/g ink. FIG. 2a comprises cyclic voltammograms of electrodes containing the chromium complex Compound 6 at 50 mV/s and 0.2 μA/cm in PBS, and FIG. 2b the catalytic wave upon addition of 100 μl glucose oxidase recorded at 20 mV/s and 0.5 μA/cm. […] From FIG. 2b, it is seen that GOD mediation occurs on applying mixtures of enzyme and glucose to the electrodes, with small catalytic currents of about 1 μA.
Further work with the dithiocarbamate complexes Compounds 10 to 12 was carried out with screen-printed carbon electrodes produced from carbon inks mixed with each of the complexes. […] Catalytic currents in the region of 4 μA were recorded in the presence of GOD and glucose. Variable but increased currents of up to 29 μA were obtained with 0.1 M glucose when the enzyme was confined in the carbon electrode with the mediator, see FIG. 9.

glucose oxidase (GOD) [4] = biological target: T2, glucose oxidase (GOD) (Aspergillus niger, UniProt P13006); experiment: Mediation to glucose oxidase with screen-printed carbon electrodes containing the mediator; assay type: biochemical
T2 sequence (P13006 17-605): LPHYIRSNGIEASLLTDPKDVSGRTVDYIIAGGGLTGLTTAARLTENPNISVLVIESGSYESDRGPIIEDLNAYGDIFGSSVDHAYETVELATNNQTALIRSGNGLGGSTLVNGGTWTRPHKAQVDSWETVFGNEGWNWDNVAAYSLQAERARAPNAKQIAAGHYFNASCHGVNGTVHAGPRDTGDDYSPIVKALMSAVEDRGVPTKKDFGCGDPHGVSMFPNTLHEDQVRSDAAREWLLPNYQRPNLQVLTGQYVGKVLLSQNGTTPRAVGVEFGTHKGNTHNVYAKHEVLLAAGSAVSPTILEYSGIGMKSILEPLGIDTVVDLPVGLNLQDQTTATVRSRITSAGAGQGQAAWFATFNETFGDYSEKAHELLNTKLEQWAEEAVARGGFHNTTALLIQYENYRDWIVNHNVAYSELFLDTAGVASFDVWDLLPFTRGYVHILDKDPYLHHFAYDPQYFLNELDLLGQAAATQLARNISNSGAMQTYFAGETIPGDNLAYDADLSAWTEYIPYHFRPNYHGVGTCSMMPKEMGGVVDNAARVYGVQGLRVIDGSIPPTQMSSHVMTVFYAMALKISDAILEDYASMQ
Experimental: as §1, §2
Further work with the dithiocarbamate complexes Compounds 10 to 12 was carried out with screen-printed carbon electrodes produced from carbon inks mixed with each of the complexes. […] Catalytic currents in the region of 4 μA were recorded in the presence of GOD and glucose. […]

glucose oxidase (GOD) [5] = biological target: T2, glucose oxidase (GOD); experiment: Mediation to glucose oxidase in solution (catalytic wave, enzyme titration in 0.1 M glucose/PBS); assay type: biochemical
[6] = cited from earlier work
[7] = Solubility / stability in aqueous buffer; details: aqueous buffer / water
[8] = pH 7
glucose oxidase (GOD) [9] = biological target: T2, glucose oxidase (GOD); details: literature value (Anal. Chem., 56 (1984) 667); cited from earlier work
[10] = complex in aqueous buffer (PBS)
[11] = 0.5 mM in PBS with added β-cd (0.5-5.0 mM)

catalytic ring current, comparison of mediators [1]: identical catalytic currents
Compound: 1,1'-dimethylferrocene ethanolamine [reference compound]

Compound: CN(C)c1ccccc1.[C-]#[O+].[C-]#[O+].[C-]#[O+].[Cr] [Compound 1]
EOX [2]: +250 mV

Compound: OCCN(CCO)c1ccccc1.[C-]#[O+].[C-]#[O+].[C-]#[O+].[Cr] [Compound 3]
EOX [2]: +250 mV

Compound: Nc1ccc(N)cc1.[C-]#[O+].[C-]#[O+].[C-]#[O+].[Cr] [Compound 4]
EOX [2]: +135 mV

Compound: COc1ccc(N)c(OC)c1.[C-]#[O+].[C-]#[O+].[C-]#[O+].[Cr] [Compound 5]
EOX [2]: +170 mV

Compound: Cc1c(C)c(N)c(C)c(C)c1N.[C-]#[O+].[C-]#[O+].[C-]#[O+].[Cr] [Compound 6]
EOX [2]: +40 mV | reversibility of the voltammetric wave [2, 10]: reversible wave | mid-point potential ([3]; screen-printed electrodes, 3.5 mg complex/g ink, PBS applied): -15 mV | reversibility of the voltammetric wave ([3]; screen-printed electrodes, PBS applied): reversible wave | catalytic current (glucose oxidase (GOD) [4]; mixtures of GOD and glucose applied to screen-printed electrodes containing the mediator): about 1 μA

Compound: Nc1cc(N)cc(N)c1.[C-]#[O+].[C-]#[O+].[C-]#[O+].[Cr] [Compound 7]
EOX [2]: +50 mV

Compound: Cc1cc[cH-]c1.[C-]#[O+].[C-]#[O+].[C-]#[O+].[Mn] [Compound 8, (methylcyclopentadienyl)manganese tricarbonyl]
second order rate coefficient for the oxidation of reduced GOD (glucose oxidase (GOD) [5]; 0 to 25 μl GOD titrated into mediator in 0.1 M glucose/PBS, from icat versus [GOD]^1/2): 210000 M⁻¹ s⁻¹

Compound: [C-]#[O+].[C-]#[O+].[C-]#[O+].[Mn].[c-]1[c-][c-][cH-][c-]1 [Cyclopentadienyl manganese tricarbonyl]
oxidation potential, more positive than ferrocene ([6]; in acetonitrile, relative to ferrocene): ~1.2 V

Compound: [C-]#[O+].[C-]#[O+].[C-]#[O+].[Cr].c1ccccc1 [benzene chromium tricarbonyl]
aqueous solubility (in words) [7]: negligible solubility in buffer | half wave potential ([6]; in dichloromethane): +710 mV vs SCE

reversibility of the voltammetric wave [2, 10]: reversible wave | potential of the voltammetric wave [2]: +440 mV
Compound: [MeCpMn(NO)(CN)2 ]Na [Compound 13]

oxidation potential of the species formed by decomposition ([2]; aqueous buffer, irreversibly oxidized): +230 mV
Compound: [MeCpMn(NO)(CO)2 ]PF6 [Compound 9]

oxidation wave potential [3]: +300 mV
Compound: [MeCpMn(NO)(S2 CNEt2)] [Compound 11]

Compound: [MeCpMn(NO)(S2 CNMe2)] [Compound 10]
oxidation wave potential [3]: +240 mV | catalytic current (glucose oxidase (GOD) [4]; 0.1 M glucose, enzyme confined in the carbon electrode with the mediator): up to 29 μA

Compound: [MeCpMn(NO)(S2 CNMe2)]β-cyclodextrin
icat (catalytic wave) (glucose oxidase (GOD) [5]; upon addition of GOD and glucose, 0.1 M glucose/PBS): 9.7 μA | catalytic ring current, comparison of mediators [1]: identical catalytic currents | solubility in PBS [8]: at least 0.5 mM | ΔEp ([2]; 0.1 M glucose/PBS): 70 mV | reversibility of the voltammetric wave [2, 10]: reversible wave | potential of the voltammetric wave [2]: +255 mV

reversibility of the voltammetric wave [2, 10]: irreversible electrochemistry | potential of the voltammetric wave [2]: about +600 mV
Compound: [MeCpMn(NO)(bipy)]PF6 [Compound 14]

reversibility of the voltammetric wave [2, 10]: irreversible electrochemistry | potential of the voltammetric wave [2]: about +600 mV
Compound: [MeCpMn(NO)(phen)]PF6 [Compound 15]

E1/2 [2, 11]: +5 mV | ΔEp [2, 11]: 65 mV | reversibility of the voltammetric wave ([2]; 0.5 mM in buffer with added β-cd (0.5-5.0 mM)): reversible wave | Eox ([2]; 0.6 mM in PBS, 50 mV/s): -25 mV
Compound: [MeCpMn(NO){(SCCN)2 }][NEt4 ] [Compound 16]

Compound: ferrocene monocarboxylic acid
second order rate constant for the oxidation of reduced GOD (glucose oxidase (GOD) [9]): 200000 M⁻¹ s⁻¹
